{"source": "patent US20080260716A1", "about": "“Method and Composition for High Level Disinfection Employing Quaternary Ammonium Compounds” (priority 2004, published 2008)", "key": {"[1]": {"system": "Mycobacterium terrae", "experiment": "AOAC tuberculocidal test, kill time", "type": "cell-based", "conditions": "for Kill Time M. terrae: tests 7.1-7.4, 1% of the quat, 50° C.", "excerpt": "These standards are based on the known or possible risk of contamination of a particular medical device by a particular micro-organism, the pathogenic nature of the organism and other principles in infection control. […] The test panels and criteria are different for “low”, “intermediate” or “high-level disinfection”. These terms are herein used in accordance with current Food and Drug Administration (“FDA”) criteria for levels of disinfection which are detailed in Premarket Notification [510(k)] Submissions for Liquid Chemical Sterilants and High Level Disinfectants FDA 1997: “A germicide that inactivates all microbial pathogens except large number of bacterial endospores when used according to labelling”. In brief, the FDA regulatory requirement for high level disinfectants includes as the most challenging test a 100% kill of Mycobacterium tuberculosis var. bovis (or a specific strain of a suitable surrogate, such as Mycobacterium terrae) in 400 p.p.m. hard water in the presence of 2% horse serum in a quantitative tuberculocidal test.\nIn the following tables unless otherwise specified references to “kill time” mean the time required to achieve complete kill as defined in the relevant AOAC test (more particularly identified in annexure 1). “No kill” means less than 2 log reduction from the initial population. Unless otherwise specified “QUAT” is benzalkonium chloride, specifically Gardiquat NC-50 (Albright & Wilson). Test points for vegetative bacteria (M. terrae) were 2, 5, 10, 20 and 60 mins. Test points for spores were 0.5, 1, 2, 4, 16, 24, 48 hours. The last column in each table indicates whether the tested combination satisfies the FDA requirement for high level disinfection (“HLD”) or fails to do so (“F”).\nAOAC tests for determination of High level Disinfection as defined in current FDA criteria (detailed in “Premarket Notification [510(k)] Submissions for Liquid Chemical Sterilants and High Level Disinfectants FDA 1993”.):\nAOAC Tuberculocidal Activity of Disinfectants\nAOAC Ref No 965.12, AOAC Official Methods of Analysis (1995)"}, "[2]": {"system": "Mycobacterium terrae, B. subtilis, C. sporogens", "parameters": "key: satisfies the FDA requirement for high level disinfection (“HLD”); fails to do so (“F”)"}, "[3]": {"system": "C. sporogens spores", "experiment": "AOAC sporicidal test, kill time", "type": "cell-based", "conditions": "50° C."}, "[4]": {"system": "B. subtilis spores", "experiment": "AOAC sporicidal test, kill time", "type": "cell-based", "conditions": "50° C."}, "[5]": {"conditions": "30 min, 20° C. (Sporox); cited from earlier work"}, "[6]": {"conditions": "tests 7.1-7.4, 1% of the quat, 50° C."}}, "note": "Where two headings read alike, the source gives them in different places.", "data": [{"compound": "CCCCCCCCCC[N+](C)(C)CCCCCCCCCC.[Cl-]", "note": "[Quat(1), Didecyl Dimethyl Ammonium Chloride]", "values": [{"measurement": "Kill Time M. terrae", "setting": "[1]", "value": "<10", "unit": "min"}, {"measurement": "HLD or F", "setting": "[2]; [6]", "value": "HLD"}, {"measurement": "Kill Time C. sporogens", "setting": "[3]; test 7.1, 1% Quat(1)", "value": "<2", "unit": "h"}, {"measurement": "Kill Time B. subtilis", "setting": "[4]; test 7.1, 1% Quat(1)", "value": "<2", "unit": "h"}]}, {"compound": "CCCCCCCC[N+](C)(C)CCCCCCCC.[Cl-]", "note": "[Quat(2), Dioctyl Dimethyl Ammonium Chloride]", "values": [{"measurement": "Kill Time M. terrae", "setting": "[1]", "value": "<10", "unit": "min"}, {"measurement": "HLD or F", "setting": "[2]; [6]", "value": "HLD"}, {"measurement": "Kill Time C. sporogens", "setting": "[3]; tests 7.2-7.4, 1% of the quat", "value": "<2", "unit": "h"}, {"measurement": "Kill Time B. subtilis", "setting": "[4]; tests 7.2-7.4, 1% of the quat", "value": "<2", "unit": "h"}]}, {"compound": "CC(C)(C)CC(C)(C)c1ccc(OCCOCC[N+](C)(C)Cc2ccccc2)cc1", "note": "[benzethonium chloride, reference compound]", "values": [{"measurement": "effectiveness against Mycobacterium", "setting": "[1]; 0.25%, temperatures above 60° C., with ultrasound", "value": "not effective"}, {"measurement": "HLD or F", "setting": "[2]; test 1.3, 0.25% benzethonium chloride, 0.25% Triton X-100, 5% isopropanol, 62° C. + ultrasound 20 min/hr", "value": "F"}]}, {"compound": "OO", "note": "[peroxide, hydrogen peroxide]", "values": [{"measurement": "minimum effective concentration for high-level disinfection", "setting": "[5]", "value": 6.0, "unit": "%"}]}, {"compound": "N-Alkyl Dimethyl Ammonium Chloride [Quat(3)]", "values": [{"measurement": "Kill Time M. terrae", "setting": "[1]", "value": "<10", "unit": "min"}, {"measurement": "HLD or F", "setting": "[2]; [6]", "value": "HLD"}, {"measurement": "Kill Time C. sporogens", "setting": "[3]; tests 7.2-7.4, 1% of the quat", "value": "<2", "unit": "h"}, {"measurement": "Kill Time B. subtilis", "setting": "[4]; tests 7.2-7.4, 1% of the quat", "value": "<2", "unit": "h"}]}]}
